Measured values as given in patent US7772183B2 (Bristol-Myers Squibb Company, priority 2005, dated 2010).
Where two headings read alike, the source gives them in different places.

How the values were obtained:
[1] = tested on: human pancreatic chymotrypsin; assay: Specificity assay, chymotrypsin; type: biochemical; details: read-out: Chymotrypsin activity in the specificity assays
Method: The specificities of compounds of the present disclosure were determined against a variety of serine proteases: human neutrophil elastase (HNE), porcine pancreatic elastase (PPE) and human pancreatic chymotrypsin and one cysteine protease: human liver cathepsin B. In all cases, a 96-well plate format protocol using colorimetric p-nitroaniline (pNA) substrate or fluorometric Amino-Methyl-Coumarin (AMC) substrate, specific for each enzyme was used as described previously (PCT Patent Application No. WO 00/09543) with some modifications. All enzymes were purchased from Sigma or EMDbiosciences while the substrates were from Bachem.
Each pNA assay included a 2 h enzyme-inhibitor pre-incubation at room temperature followed by addition of substrate and hydrolysis to ˜15% conversion as measured on a Spectramax Pro microplate reader. The cathepsin B assay was initiated by adding substrate to a 10 min enzyme-inhibitor pre-incubation at room temperature, and the assay plate measured immediately using the Cytofluor Series 4000. Compound concentrations varied from 100 to 0.4 μM depending on their potency.
The final conditions for each assay were as follows: […]
The percentage of inhibition was calculated using the formula: [1−((UVinh−UVblank)/(UVctl−UVblank))]×100 […]

[2] = biological target: T1, HCV NS3/4A protease complex, BMS strain (UniProt P27958, species not given/STRAIN_BMS); assay: FRET peptide assay to monitor HCV NS3/4A proteolytic activity (BMS strain); type: biochemical, Hepatitis C virus (genotype 1a)
T1 construct: said of H77 and J4L6S; fused on or other part: A three-lysine solubilising tail at the C-terminus of NS4A and a His tag (pET21b, Ni-NTA purification)
Outline: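 Recombinant NS3/4A complexes (aa 1027–1711) from H77 (1a) and J4L6S (1b) carried a three-lysine tail, C1711G and C1454S. They were expressed in E. coli BL21(DE3) (0.5 mM IPTG, 22 h, 20 °C), then purified by Ni-NTA and Superdex-S200 to >90% purity. The BMS strain was a genotype 1a clone from patient serum.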

T1 sequence (P27958 1027-1657, change not shown, one chain of several): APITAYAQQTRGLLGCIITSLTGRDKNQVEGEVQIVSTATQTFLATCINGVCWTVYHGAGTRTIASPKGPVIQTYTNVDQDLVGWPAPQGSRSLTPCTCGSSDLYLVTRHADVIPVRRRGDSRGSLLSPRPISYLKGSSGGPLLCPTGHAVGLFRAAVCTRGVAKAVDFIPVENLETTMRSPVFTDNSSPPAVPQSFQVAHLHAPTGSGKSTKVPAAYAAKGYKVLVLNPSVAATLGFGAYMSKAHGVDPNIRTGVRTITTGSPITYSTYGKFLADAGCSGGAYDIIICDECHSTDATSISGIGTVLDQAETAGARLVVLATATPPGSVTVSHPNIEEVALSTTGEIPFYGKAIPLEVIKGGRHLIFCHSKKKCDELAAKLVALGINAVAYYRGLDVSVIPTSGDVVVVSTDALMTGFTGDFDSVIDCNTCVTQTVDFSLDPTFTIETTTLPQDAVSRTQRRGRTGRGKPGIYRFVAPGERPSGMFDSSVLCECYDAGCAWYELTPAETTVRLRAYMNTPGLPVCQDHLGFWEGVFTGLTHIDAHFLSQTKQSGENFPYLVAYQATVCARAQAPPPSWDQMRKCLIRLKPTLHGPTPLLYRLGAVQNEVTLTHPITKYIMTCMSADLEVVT

Compound: CC(C)(C)OC(=O)N[C@H]1CCCCC/C=C\[C@@H]2C[C@@]2(C(=O)NS(=O)(=O)C2CC2)NC(=O)[C@@H]2C[C@@H](OC(=O)c3ccc(C#N)cc3)CN2C1=O [Compound 26, 18-(4-cyanobenzoyloxy)-14-tert-butoxycarbonylamino-4-cyclopropylsulfonylaminocarbonyl-2,15-dioxo-3,16-diazatricyclo-[14.3.0.0^4,6]-nonadec-7-ene]
- IC50 [1]: > 100 µM
- IC50 ([2]; BMS strain, read-out: IC50 against the NS3/4A BMS strain in the enzyme assay): 0.00078 µM
- IC50 ([2]; NS3/4A BMS strain, read-out: IC50 Range): < 0.1 µM
